Measurements as given in ChEMBL document CHEMBL1201862, “PubChem BioAssay data set” (2004).
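All cell lines were grown in 96-well plates and treated with compound for 48 hours. Here, GI50 denotes the concentration required for 50% inhibition of growth.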 Active and inactive are the calls of the source. Cut-off read from the data, not from the text of the source: active = GI50 up to about 1.1 µM and inactive = higher.

Tests used:
Assay in all cases: NCI anticancer screen, dose series, 48 h
SK-MEL-5 = test system: SK-MEL-5
T47D = test system: T47D
EKVX = test system: EKVX
CAKI-1 = test system: CAKI-1
OVCAR-4 = test system: OVCAR-4
HL-60 = test system: HL-60
MDA-N = test system: MDA-N
Malme-3M = test system: Malme-3M
RXF 393 = test system: RXF 393
786-0 = test system: 786-0
HCT-116 = test system: HCT-116
SN12C = test system: SN12C
UACC-62 = test system: UACC-62
UACC-257 = test system: UACC-257
HCC 2998 = test system: HCC 2998
SW-620 = test system: SW-620
PC-3 = test system: PC-3
KM12 = test system: KM12
MCF7 = test system: MCF7
SNB-19 = test system: SNB-19
HCT-15 = test system: HCT-15
HOP-92 = test system: HOP-92
MOLT-4 = test system: MOLT-4
SK-MEL-2 = test system: SK-MEL-2
U-251 = test system: U-251
NCI/ADR-RES = test system: NCI/ADR-RES
OVCAR-3 = test system: OVCAR-3
DU-145 = test system: DU-145
OVCAR-5 = test system: OVCAR-5
BT-549 = test system: BT-549
CCRF-CEM = test system: CCRF-CEM
OVCAR-8 = test system: OVCAR-8
NCI-H460 = test system: NCI-H460
TK-10 = test system: TK-10
SF-539 = test system: SF-539
A549 = test system: A549
RPMI-8226 = test system: RPMI-8226
A498 = test system: A498
M14 = test system: M14
IGROV-1 = test system: IGROV-1
Hs-578T = test system: Hs-578T
HT-29 = test system: HT-29
SF-295 = test system: SF-295
NCI-H522 = test system: NCI-H522
K562 = test system: K562
COLO 205 = test system: COLO 205
MDA-MB-435 = test system: MDA-MB-435
SK-MEL-28 = test system: SK-MEL-28
MDA-MB-231 = test system: MDA-MB-231
LOX IMVI = test system: LOX IMVI
NCI-H226 = test system: NCI-H226
NCI-H23 = test system: NCI-H23
ACHN = test system: ACHN
UO-31 = test system: UO-31
SNB-75 = test system: SNB-75
HOP-62 = test system: HOP-62
SF-268 = test system: SF-268
SK-OV-3 = test system: SK-OV-3

CC(C)c1cccc(C(C)C)c1NC(=O)/C(CC(=O)CC(c1ccccc1)c1c(O)c2ccccc2oc1=O)=N/O (stereo unspecified)
GI50 (SK-MEL-5): > 100 µM (inactive)
GI50 (T47D): > 100 µM (inactive)
GI50 (EKVX): > 100 µM (inactive)
GI50 (CAKI-1): > 100 µM (inactive)
GI50 (OVCAR-4): > 100 µM (inactive)
GI50 (HL-60): > 100 µM (inactive)
GI50 (MDA-N): > 100 µM (inactive)
GI50 (Malme-3M): 95.9 µM (inactive)
GI50 (RXF 393): > 100 µM (inactive)
GI50 (786-0): > 100 µM (inactive)
GI50 (HCT-116): > 100 µM (inactive)
GI50 (SN12C): > 100 µM (inactive)
GI50 (UACC-62): > 100 µM (inactive)
GI50 (UACC-257): > 100 µM (inactive)
GI50 (HCC 2998): > 100 µM (inactive)
GI50 (SW-620): > 100 µM (inactive)
GI50 (PC-3): > 100 µM (inactive)
GI50 (KM12): > 100 µM (inactive)
GI50 (MCF7): > 100 µM (inactive)
GI50 (SNB-19): > 100 µM (inactive)
GI50 (HCT-15): > 100 µM
GI50 (HOP-92): > 100 µM (inactive)
GI50 (MOLT-4): > 100 µM (inactive)
GI50 (SK-MEL-2): > 100 µM (inactive)
GI50 (U-251): > 100 µM (inactive)
GI50 (NCI/ADR-RES): > 100 µM (inactive)
GI50 (OVCAR-3): > 100 µM (inactive)
GI50 (DU-145): > 100 µM (inactive)
GI50 (OVCAR-5): > 100 µM (inactive)
GI50 (BT-549): > 100 µM (inactive)
GI50 (CCRF-CEM): > 100 µM (inactive)
GI50 (OVCAR-8): > 100 µM (inactive)
GI50 (NCI-H460): > 100 µM (inactive)
GI50 (TK-10): > 100 µM (inactive)
GI50 (SF-539): > 100 µM (inactive)
GI50 (A549): > 100 µM (inactive)
GI50 (RPMI-8226): > 100 µM (inactive)
GI50 (A498): > 100 µM (inactive)
GI50 (M14): > 100 µM (inactive)
GI50 (IGROV-1): > 100 µM (inactive)
GI50 (Hs-578T): > 100 µM (inactive)
GI50 (HT-29): > 100 µM (inactive)
GI50 (SF-295): > 100 µM (inactive)
GI50 (NCI-H522): > 100 µM (inactive)
GI50 (K562): > 100 µM (inactive)
GI50 (COLO 205): > 100 µM (inactive)
GI50 (MDA-MB-435): > 100 µM (inactive)
GI50 (SK-MEL-28): > 100 µM (inactive)
GI50 (MDA-MB-231): > 100 µM (inactive)
GI50 (LOX IMVI): > 100 µM (inactive)
GI50 (NCI-H226): > 100 µM (inactive)
GI50 (NCI-H23): > 100 µM (inactive)
GI50 (ACHN): > 100 µM (inactive)
GI50 (UO-31): > 95.9 µM (inactive)
GI50 (SNB-75): > 100 µM (inactive)
GI50 (HOP-62): > 100 µM (inactive)
GI50 (SF-268): > 100 µM (inactive)
GI50 (SK-OV-3): > 100 µM (inactive)

Nc1ccc2c(c1)S(=O)(=O)c1cc(N)ccc1-2
GI50 (SK-MEL-5): > 100 µM (inactive)
GI50 (T47D): > 100 µM (inactive)
GI50 (EKVX): > 100 µM (inactive)
GI50 (CAKI-1): > 100 µM (inactive)
GI50 (OVCAR-4): > 100 µM (inactive)
GI50 (HL-60): 78.5 µM (inactive)
GI50 (MDA-N): > 100 µM (inactive)
GI50 (RXF 393): > 100 µM (inactive)
GI50 (786-0): > 100 µM (inactive)
GI50 (HCT-116): > 100 µM (inactive)
GI50 (SN12C): > 100 µM (inactive)
GI50 (UACC-62): > 100 µM (inactive)
GI50 (UACC-257): > 100 µM (inactive)
GI50 (HCC 2998): > 100 µM (inactive)
GI50 (SW-620): > 100 µM (inactive)
GI50 (PC-3): > 100 µM (inactive)
GI50 (KM12): > 100 µM (inactive)
GI50 (MCF7): > 100 µM (inactive)
GI50 (SNB-19): > 100 µM (inactive)
GI50 (HCT-15): > 100 µM
GI50 (HOP-92): > 100 µM (inactive)
GI50 (MOLT-4): > 100 µM (inactive)
GI50 (SK-MEL-2): > 100 µM (inactive)
GI50 (U-251): > 100 µM (inactive)
GI50 (NCI/ADR-RES): > 100 µM (inactive)
GI50 (OVCAR-3): > 100 µM (inactive)
GI50 (DU-145): > 100 µM (inactive)
GI50 (OVCAR-5): > 100 µM (inactive)
GI50 (BT-549): > 100 µM (inactive)
GI50 (OVCAR-8): > 100 µM (inactive)
GI50 (NCI-H460): > 100 µM (inactive)
GI50 (TK-10): > 100 µM (inactive)
GI50 (SF-539): > 100 µM (inactive)
GI50 (A549): > 100 µM (inactive)
GI50 (A498): > 100 µM (inactive)
GI50 (M14): > 100 µM (inactive)
GI50 (IGROV-1): > 100 µM (inactive)
GI50 (Hs-578T): > 100 µM (inactive)
GI50 (HT-29): > 100 µM (inactive)
GI50 (SF-295): > 100 µM (inactive)
GI50 (NCI-H522): > 100 µM (inactive)
GI50 (K562): > 100 µM (inactive)
GI50 (COLO 205): > 100 µM (inactive)
GI50 (MDA-MB-435): > 100 µM (inactive)
GI50 (MDA-MB-231): > 100 µM (inactive)
GI50 (LOX IMVI): > 100 µM (inactive)
GI50 (NCI-H226): > 100 µM (inactive)
GI50 (NCI-H23): > 100 µM (inactive)
GI50 (ACHN): > 100 µM (inactive)
GI50 (UO-31): > 100 µM (inactive)
GI50 (HOP-62): > 100 µM (inactive)
GI50 (SF-268): > 100 µM (inactive)
GI50 (SK-OV-3): > 100 µM (inactive)
